15 molecules from PubChem BioAssay AID2060332 (Molecular Pharmacology Branch, DTP, NCI, 2025) can be followed below.

Several values for one entry are separate records, joined by “and”; a condition that tells them apart may be missing. Equal entries are not always repeated.

The test system of this assay is LG0567-F671-PDC multi-cell spheroid viability. Put plainly: Anticancer human tumor LG0567-F671-PDC patient-derived lung adenocarcinoma cell line growth inhibition [IpAb]. The following applies: for viability, T/C: stronger effect = lower value. The text has this: Combinatorial screen of targeted agents with ipatasertib and abemaciclib in multi-cell type tumor spheroids
A high-throughput screen of multi-cell type tumor spheroids was designed to identify active combinations of targeted small molecules and ipatasertib or abemaciclib. Complex spheroids include a stromal component modeled by human endothelial cells (HUVEC) and fibroblasts modeled by human mesenchymal stem cells (MSCs). The concentration ranges selected for each drug and investigational agent were based upon clinically achievable concentrations if the clinical Cmax of the agent was known.
Compounds. The drugs and investigational agents: ipatasertib (NSC767898), abemaciclib(NSC768073), selumetinib (NSC741078), trametinib (758246), adavosertib (NSC754352), everolimus (NSC733504), sapanisertib (NSC764658), vemurafenib (NSC761431), venetoclax (NSC766270), copanlisib (NSC809693), apelisib (NSC765974), palbociblib (NSC758247), vemurafenib (NSC761431), dabrafenib (NSC764134), ravoxertinib (NSC781343), BMS-387032 (NSC767048), sotorasib (NSC818433), talazoparib (NSC767125) and afursertib (NSC778305), were obtained from the National Cancer Institute (NCI) Developmental Therapeutics Program Chemical Repository. The FDA-approved anticancer drug set is available from the NCI Developmental Therapeutics Program. […] The stock solutions were prepared in dimethyl sulfoxide (DMSO, Sigma-Aldrich, St. Louis, MO, cat. D2650) at 800-fold the tested concentration and stored at -70 degrees C prior to their use. All drugs and investigational agents were tested over a range starting from a high concentration at or near the clinical Cmax and decreasing in half-log increments. If the clinical Cmax for an agent had not been determined, the highest concentration tested was 10 microM.
NCI60 Cell Culture. NCI60 cell lines were obtained from the NCI Developmental Therapeutics Program Tumor Repository. For each lot of cells, the Repository performed Applied Biosystems AmpFLSTR Identifiler testing with PCR amplification to confirm consistency with the published Identifier STR profile for each cell line. Cells were kept in continuous culture for no more than 20 passages. The optimal seeding densities for each of the cell lines at each time point assessed were determined prior to performing the concentration response studies. Briefly, the NCI60 human tumor lines were grown as monolayers in RPMI 1640 medium supplemented with 10% FBS and 2 mmol/L L-glutamine.
An additional 9 lines were from the NCI60 cell line panel including MDA-MB-231 breast carcinoma, MDA-MB-468 breast carcinoma, MCF7 breast carcinoma, Hs578T breast carcinoma, MALME-3M melanoma, SK-MEL-2 melanoma, SK-OV-3 ovarian carcinoma, DU-145 prostate carcinoma, PC-3 prostate carcinoma, all cell lines along with major genetic alterations are listed on Table 2. Pooled donor human umbilical vein endothelial cells (HUVEC, Lonza, cat. CC-2519) and human mesenchymal stem cells (hMSC, Lonza, cat. PT-2501) were purchased from Lonza (Walkersville, MD).
PDMR cell lines were grown in complete medium (DC medium): Dulbecco's modified Eagle's medium (DMEM)/F12 supplemented with 5% fetal bovine serum (FBS), 2 mM L-glutamine, 100 U/mL penicillin and 100 µg/ml streptomycin, 0.4 µg/ml hydrocortisone, 10 ng/ml epidermal growth factor (EGF) recombinant human protein, 24 µg/mL adenine, and 0.1 mg/mL primocin. During culture from frozen stock vials, PDMR cells were cultured in the same medium containing 10 µM Y-27632 (see Table 3). The PDCs were cultured in complete DMEM/F12 media without 10 microM Y-27632 dihydrochloride for at least two passages prior to the screen. The pooled donor HUVEC and hMSC were cultured in endothelial cell growth medium 2 (PromoCell, Heidelberg, Germany, cat. C-22011) and mesenchymal stem cell growth medium 2 (PromoCell, cat. C-28009), respectively. For all experiments, HUVEC and hMSC were used at passages </=5.
[…]

Setting [1] is: compound alone, run of 06/01/2021.
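Note: viability read after 7 days of drug exposure.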
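Throughout, for viability, T/C: 100% = DMSO vehicle control luminescence.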

The term viability, T/C denotes the result in the treated group divided by that in the control group, in per cent. As a reminder, the IC50 is the midpoint of a concentration-inhibition curve. In the case of `C=CC(=O)N1CCN(c2nc(=O)n(-c3c(C)ccnc3C(C)C)c3nc(-c4c(O)cccc4F)c(F)cc23)C(C)C1` (centres undefined), the viability, T/C reads like this: (compound 0.0316 µM) 26.6% and 19.1%; (compound 0.1 µM) 18.9% and 20.1%; (compound 0.316 µM) 19.7% and 18.1%; (compound 1 µM) 18.6% and 17.6%; (compound 3.16 µM) 16% and 20.2%; (compound 10 µM) 20.3% and 18.5%. Besides, the IC50 (curve of compound) is less than 31.6 nM.
`C=CCn1c(=O)c2cnc(Nc3ccc(N4CCN(C)CC4)cc3)nc2n1-c1cccc(C(C)(C)O)n1`: the viability, T/C by setting is: (compound 0.0316 µM) 101% and 104%; (compound 0.1 µM) 76.4% and 73.2%; (compound 0.316 µM) 46.1% and 54.2%; (compound 1 µM) 45.3% and 54%; (compound 3.16 µM) 37.1% and 57.6%; (compound 10 µM) 30.6% and 41.5%.
In the case of `CC(=O)c1c(C)c2cnc(Nc3ccc(N4CCNCC4)cn3)nc2n(C2CCCC2)c1=O`, the viability, T/C (compound 0.000949 µM) was 95.7% and 102%; the viability, T/C (compound 0.003 µM) is 78.4% and 87.8%; the viability, T/C (compound 0.00949 µM) is 107% and 91.7%; the viability, T/C (compound 0.03 µM) was 68.7% and 76.1%; the viability, T/C (compound 0.0949 µM) was 91.7% and 72.5%; the viability, T/C (compound 0.3 µM) was 86.8% and 82.4%. For the same molecule, under “curve of compound”, the IC50 is greater than 300 nM.
Take `CC(C)(C)c1cnc(CSc2cnc(NC(=O)C3CCNCC3)s2)o1`: the viability, T/C (compound 0.00949 µM) was 110% and 111%; the viability, T/C (compound 0.03 µM) was 113% and 95.4%; the viability, T/C (compound 0.0949 µM) is 97.6% and 73.8%; the viability, T/C (compound 0.3 µM) is 6.76% and 3.49%; the viability, T/C (compound 0.949 µM) is 2.03% and 1.44%; the viability, T/C (compound 3 µM) is 0.9% and 0.89%. In addition, for the setting “curve of compound”, the IC50 is 173 nM and 140 nM.
As to `CC(C)NCC(C(=O)N1CCN(c2ncnc3c2C(C)CC3O)CC1)c1ccc(Cl)cc1` (centres undefined), the viability, T/C is, setting by setting: (compound 0.316 µM) 71.7% [middle of 13 runs]; (compound 10 µM) 71.6% [middle of 13 runs]. Also, under setting [1], the IC50 was greater than 10000 nM.
Turning to `CC(C)n1nc(-c2ccc3oc(N)nc3c2)c2c(N)ncnc21`, the viability, T/C runs as follows: (compound 0.000316 µM) 108% and 95.6%; (compound 0.001 µM) 79.7% and 87.8%; (compound 0.00316 µM) 90.1% and 102%; (compound 0.01 µM) 64% and 55.8%; (compound 0.0316 µM) 78.1% and 50%; (compound 0.1 µM) 66.9% and 56.8%. Further, for the setting “curve of compound”, the IC50 was greater than 100 nM.
On to `CC1(C)CCC(CN2CCN(c3ccc(C(=O)NS(=O)(=O)c4ccc(NCC5CCOCC5)c([N+](=O)[O-])c4)c(Oc4cnc5[nH]ccc5c4)c3)CC2)=C(c2ccc(Cl)cc2)C1`, for which the viability, T/C is, setting by setting: (compound 0.0316 µM) 96.3% and 101%; (compound 0.1 µM) 87.4% and 110%; (compound 0.316 µM) 86.8% and 105%; (compound 1 µM) 112% and 113%; (compound 3.16 µM) 145% and 143%; (compound 10 µM) 25.2% and 23%. For the same molecule, the concentration for half-maximal inhibition (IC50) (curve of compound) is 7020 nM and 7120 nM.
`CCCS(=O)(=O)Nc1ccc(F)c(C(=O)c2c[nH]c3ncc(-c4ccc(Cl)cc4)cc23)c1F`: the viability, T/C was 101% and 97.6% (compound 0.0316 µM); 117% and 154% (compound 0.1 µM); 143% and 135% (compound 0.316 µM); 138% (compound 1 µM); 197% and 189% (compound 3.16 µM); 215% and 179% (compound 10 µM). Also, the IC50 (curve of compound) was greater than 10000 nM.
As for `CCN1CCN(Cc2ccc(Nc3ncc(F)c(-c4cc(F)c5nc(C)n(C(C)C)c5c4)n3)nc2)CC1`, the IC50 under setting [1] is greater than 1000 nM.
Regarding `COc1c(OCCCN2CCOCC2)ccc2c3n(c(=NC(=O)c4cnc(N)nc4)nc12)CCN3`, the viability, T/C was 102% (compound 0.00316 µM); 75.8% and 88.7% (compound 0.01 µM); 59.6% and 64.5% (compound 0.0316 µM); 48.8% and 42.4% (compound 0.1 µM); 35.9% and 36.7% (compound 0.316 µM); 33.4% and 31.1% (compound 1 µM). Besides, the IC50 (curve of compound) was 75 nM and 69.6 nM.
In the case of `Cc1nc(NC(=O)N2CCCC2C(N)=O)sc1-c1ccnc(C(C)(C)C(F)(F)F)c1` (centres undefined), the viability, T/C by setting is: (compound 0.0316 µM) 85.2%; (compound 0.1 µM) 79.3% and 90.2%; (compound 0.316 µM) 59.3% and 74%; (compound 1 µM) 44.5% and 52.8%; (compound 3.16 µM) 66.8% and 49.1%; (compound 10 µM) 50.2% and 46.2%. Also, for the setting “curve of compound”, the IC50 was > 10000 nM and 1800 nM.
With `Cn1cnc2c(F)c(Nc3ccc(Br)cc3Cl)c(C(=O)NOCCO)cc21`, the viability, T/C is 54.7% and 48.5% (compound 0.00949 µM); 33% and 42.6% (compound 0.03 µM); 27.1% and 34.2% (compound 0.0949 µM); 25.2% and 24.2% (compound 0.3 µM); 18.1% and 21.6% (compound 0.949 µM); 16.5% and 16% (compound 3 µM). Moreover, the IC50 (curve of compound) is 11.9 nM and < 9.49 nM.
Regarding `Cn1ncc(Cl)c1-c1cc(C(=O)NC(CN)Cc2cccc(F)c2)sc1Cl` (centres undefined), the viability, T/C is 111% and 97.3% (compound 0.0316 µM); 93% and 66% (compound 0.1 µM); 52.6% and 62.1% (compound 0.316 µM); 82.9% and 63% (compound 1 µM); 53% and 45.6% (compound 3.16 µM); 0.27% and 0.21% (compound 10 µM). Moreover, the IC50 (curve of compound) is 2470 nM and 1660 nM.
Regarding `Cn1nccc1Nc1nccc(-c2ccn(C(CO)c3ccc(Cl)c(F)c3)c(=O)c2)n1` (centres undefined), the viability, T/C (compound 0.0316 µM) is 96.4% and 76.2%; the viability, T/C (compound 0.1 µM) is 50.8% and 58.4%; the viability, T/C (compound 0.316 µM) was 45% and 40.1%; the viability, T/C (compound 1 µM) was 41.1% and 29.3%; the viability, T/C (compound 3.16 µM) is 33.5% and 35.7%; the viability, T/C (compound 10 µM) was 36.3% and 34.5%. Moreover, the IC50 (curve of compound) was 138 nM and 166 nM.
Consider `Cn1ncnc1[C@H]1c2n[nH]c(=O)c3cc(F)cc(c23)N[C@@H]1c1ccc(F)cc1`, for which the viability, T/C runs as follows: (compound 0.000316 µM) 113% and 103%; (compound 0.001 µM) 89.9% and 84.2%; (compound 0.00316 µM) 96.3% and 81.5%; (compound 0.01 µM) 69.8% and 66%; (compound 0.0316 µM) 42.7% and 73.8%; (compound 0.1 µM) 65.2% and 30.4%. Besides, the IC50 (curve of compound) is > 100 nM and 49.1 nM.
